From BindingDB's records for PubMed 33486199 (Queen Mary University of London, 2021)

Molecular target: T1, fMet-Leu-Phe receptor (Homo sapiens, UniProt P21462)
T1 sequence (P21462 whole entry): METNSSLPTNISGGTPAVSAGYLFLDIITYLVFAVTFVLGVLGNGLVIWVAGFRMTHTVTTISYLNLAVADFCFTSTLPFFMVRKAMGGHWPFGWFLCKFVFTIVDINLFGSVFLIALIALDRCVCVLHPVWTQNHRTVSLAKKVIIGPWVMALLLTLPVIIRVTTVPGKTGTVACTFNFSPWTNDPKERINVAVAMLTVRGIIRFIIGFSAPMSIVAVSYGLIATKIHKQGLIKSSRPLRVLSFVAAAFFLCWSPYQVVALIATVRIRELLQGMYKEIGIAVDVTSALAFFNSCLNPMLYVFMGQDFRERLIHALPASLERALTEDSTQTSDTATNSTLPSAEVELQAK
Test: Agonist activity at human FPR1 expressed in CHO cells assessed as cAMP level incubated for 1.5 hr by HTRF assay

| EC50 [µM] | SMILES |
| --- | --- |
| > 10 | O=C(Nc1ccc(Cl)cc1F)N[C@@H]1CCN(c2ccc(-c3cnn(C(F)F)c3)c(F)c2F)C1=O [US10676431, Example 79] |
| > 10 | CP(C)(=O)c1ccccc1-c1ccc(N2CC(CO)[C@@H](NC(=O)Nc3ccc(Cl)cc3F)C2=O)c(F)c1F (some centres not stated) [US10676431, Example 125] |
